The numbers were not newly measured in patent US11207302B2, “1,2,5-oxadiazoles as inhibitors of indoleamine 2,3-dioxygenase” (Incyte Corporation, priority 2008, dated 2021), which cites them from elsewhere.

The test system of data set [1] is LLC tumors. To be noted: LLC tumors in C57Bl/6 mice, versus placebo.
The test system of data set [2] is P815 tumor. To be noted: pre-immunized immune-competent mice challenged with murine tumor cells.

For the compound `Cn1cc(C[C@H](N)C(=O)O)c2ccccc21` [Example 1-MT, 1-methyl-tryptophan], in data set [1], the formation of tumors entry is reported as “markedly delayed”. In addition, in data set [2], the growth of tumors result is reported as “inhibited”.
